From patent publication US20260158009A1 (GENZYME CORPORATION, priority 2023, published 2026) come the findings set out here.

One assay deals with U937 cells. In words: Cellular assay in U937 cells: activity of RIPK1 inhibitors on TNFα/zVAD.fmk-induced cell death (necroptosis), CellTiter 96 AQueous (MTS) readout. It counts as cell-based. Particulars: Homo sapiens, U-937. The essentials: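 Necroptosis was measured by viable-cell MTS reduction (4 h, absorbance 490 nm) after overnight (18–24 h) 37° C culture. Cell suspensions of U937 cells carried TNFα (100 ng/ml) plus zVAD.fmk (50 μM) before compound was added. A 10-point curve (10 μM–0.26 nM or 1 μM–0.07 nM) was run in duplicate, normalised to the control lacking TNFα/zVAD.fmk.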

Assay [1] addresses T1, hRIPK1 (aa 1-375) fusion protein (Homo sapiens, UniProt Q13546).
T1 construct: hRIPK1 (aa 1-375) fusion protein
T1 sequence (Q13546 1-375): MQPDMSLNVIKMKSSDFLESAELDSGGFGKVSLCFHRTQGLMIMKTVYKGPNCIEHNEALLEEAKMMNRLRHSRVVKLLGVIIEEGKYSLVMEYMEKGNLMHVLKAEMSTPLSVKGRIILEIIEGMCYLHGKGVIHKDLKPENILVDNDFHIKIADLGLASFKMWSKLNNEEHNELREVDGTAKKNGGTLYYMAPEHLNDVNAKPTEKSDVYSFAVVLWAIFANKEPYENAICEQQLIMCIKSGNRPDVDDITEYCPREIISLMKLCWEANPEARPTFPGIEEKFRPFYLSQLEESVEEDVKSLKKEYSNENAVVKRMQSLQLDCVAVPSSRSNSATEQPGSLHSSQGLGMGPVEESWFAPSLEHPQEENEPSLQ
In words: ADP-Glo kinase assay: catalytic activity of RIPK1 (autophosphorylation, conversion of ATP to ADP). It counts as biochemical. In a few lines:
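hRIPK1 (aa 1-375) fusion protein (3.6 μg/ml final) was preincubated 30 min at rt with compound (33300-1.69 nM, 1% DMSO), then 50 μM ATP was added for 240 min at rt. ADP from autophosphorylation was measured by ADP-Glo luminescence and curves fitted by nonlinear regression.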
In general terms: ADP-Glo turns the ADP formed in a reaction into a luminescent signal.

As a reminder, the IC50 is the point on the concentration scale where inhibition reaches its midpoint. A high value points to weaker potency in that assay. With `Cn1ncc2ccc(C[C@H]3CC[C@H](C(=O)N4OCC[C@H]4c4cc(F)cc(C#N)c4)CC3)cc21` [compound 294, trans-3-fluoro-5-[(3S)-2-[4-[(1-methylindazol-6-yl)methyl]cyclohexanecarbonyl]isoxazolidin-3-yl]benzonitrile], the IC50 in the assay on U937 cells turned out to be 0.001 µM; in assay [1], 0.004 µM.

As to `Cc1nn(C[C@H]2CC[C@H](C(=O)N3OCC[C@H]3c3cc(F)cc(F)c3)CC2)c2ccccc12` [compound 60, trans-((S)-3-(3,5-difluorophenyl)isoxazolidin-2-yl)(4-((3-methyl-1H-indazol-1-yl)methyl)cyclohexyl)methanone], the figures for the concentration for half-maximal inhibition (IC50) (with U937 cells; in assay [1]) were 0.005 µM and 0.014 µM, respectively.

As to `Cc1ccc([C@@H]2CCON2C(=O)[C@]2(C)CC[C@@H](Cc3cc(C)c4nc(C)nn4c3)CC2)cn1` [compound 400, trans-[4-[(2,8-dimethyl-[1,2,4]triazolo[1,5-a]pyridin-6-yl)methyl]-1-methylcyclohexyl]-[(3S)-(6-methylpyridin-3-yl)-1,2-oxazolidin-2-yl]methanone], the IC50 in the assay with U937 cells was 0.009 µM; in assay [1] it was 0.019 µM.

`COc1cnc2ccn(C[C@H]3CC[C@H](C(=O)N4OCC[C@H]4c4cc(F)cc(C#N)c4)CC3)c2c1` [compound 128, trans-3-fluoro-5-[(3S)-2-[4-[(6-methoxypyrrolo[3,2-b]pyridin-1-yl)methyl]cyclohexanecarbonyl]isoxazolidin-3-yl]benzonitrile]: the IC50 is 0.004 µM with U937 cells and 0.022 µM in assay [1].

Take `Cc1nc([C@@H]2CCON2C(=O)[C@H]2CC[C@H](Cc3ccc(C)c(C(N)=O)c3)CC2)cs1` [compound 159, trans-2-methyl-5-[[4-[(3S)-3-(2-methylthiazol-4-yl)isoxazolidine-2-carbonyl]cyclohexyl]methyl]benzamide]: the IC50 in the assay with U937 cells was 0.048 µM; in assay [1], 0.007 µM.

Consider `Cc1ncc([C@@H]2CCON2C(=O)[C@H]2CC[C@H](Cc3ccc4ncnn4c3)CC2)cc1F` [compound 337, trans-[(3S)-3-(5-fluoro-6-methylpyridin-3-yl)-1,2-oxazolidin-2-yl]-[4-([1,2,4]triazolo[1,5-a]pyridin-6-ylmethyl)cyclohexyl]methanone], for which the results for the IC50 (with U937 cells; in assay [1]) were 0.031 µM and 0.026 µM, respectively.

For the molecule `COc1cncc([C@@H]2CCON2C(=O)[C@H]2CC[C@H](Cn3ccc4ccc(C#N)cc43)CC2)n1` [compound 241, trans-1-[[4-[(3S)-3-(6-methoxypyrazin-2-yl)isoxazolidine-2-carbonyl]cyclohexyl]methyl]indole-6-carbonitrile], the IC50 with U937 cells came out at 0.028 µM; in assay [1] it was 0.148 µM.

As for `N#Cc1ccc2cnn(C[C@H]3CC[C@H](C(=O)N4OCC[C@H]4c4ccccn4)CC3)c2c1` [compound 215, trans-1-[[4-[(3S)-3-(2-pyridyl)isoxazolidine-2-carbonyl]cyclohexyl]methyl]indazole-6-carbonitrile], the half-maximal inhibitory concentration (IC50) was 0.007 µM with U937 cells and 0.02 µM in assay [1].

For the molecule `Cc1nc([C@@H]2CCON2C(=O)[C@H]2CC[C@H](Cn3cc4ccc(C#N)cc4n3)CC2)cs1` [compound 203, trans-2-[[4-[(3S)-3-(2-methylthiazol-4-yl)isoxazolidine-2-carbonyl]cyclohexyl]methyl]indazole-6-carbonitrile], the results for the IC50 (with U937 cells; in assay [1]) were 0.432 µM and 0.125 µM, respectively.

As for `Cc1cc(C[C@H]2CC[C@H](C(=O)N3OCC[C@H]3c3cc(F)cc(C#N)c3)CC2)cn2ncnc12` [compound 249, trans-3-fluoro-5-[(3S)-2-[4-[(8-methyl-[1,2,4]triazolo[1,5-a]pyridin-6-yl)methyl]cyclohexanecarbonyl]-1,2-oxazolidin-3-yl]benzonitrile], the IC50 with U937 cells worked out at 0.005 µM; in assay [1], 0.018 µM.

For `Cc1nc2cc(C[C@H]3CC[C@H](C(=O)N4OCC[C@H]4c4csc(C)n4)CC3)ccn2n1` [compound 372, trans-[(S)-3-(2-Methyl-thiazol-4-yl)-isoxazolidin-2-yl]-[4-(2-methyl-[1,2,4]triazolo[1,5-a]pyridin-7-ylmethyl)-cyclohexyl]-methanone], the concentration for half-maximal inhibition (IC50) worked out at 0.103 µM with U937 cells and 0.053 µM in assay [1].

For `N#Cc1cc(F)cc([C@@H]2CCON2C(=O)[C@H]2CC[C@H](Cn3ccc4nc(C#N)ccc43)CC2)c1` [compound 99, trans-1-[[4-[(3S)-3-(3-cyano-5-fluoro-phenyl)isoxazolidine-2-carbonyl]cyclohexyl]methyl]pyrrolo[3,2-b]pyridine-5-carbonitrile], the IC50 came to 0.033 µM in the assay with U937 cells and 0.037 µM in assay [1].

`O=C([C@H]1CC[C@H](Cc2cc(F)cc(CCO)c2)CC1)N1OCC[C@H]1c1cc(F)cc(F)c1` [compound 283, trans-[(3S)-3-(3,5-difluorophenyl)isoxazolidin-2-yl]-[4-[[3-fluoro-5-(2-hydroxyethyl)phenyl]methyl]cyclohexyl]methanone]: the 50% inhibitory concentration (IC50) in the assay with U937 cells is 0.013 µM; in assay [1] it was 0.016 µM.

In the case of `N#Cc1cncc([C@@H]2CCON2C(=O)[C@H]2CC[C@H](Cc3cc(F)cc(CO)c3)CC2)c1` [compound 257, trans-5-[(3S)-2-[4-[[3-fluoro-5-(hydroxymethyl)phenyl]methyl]cyclohexanecarbonyl]isoxazolidin-3-yl]pyridine-3-carbonitrile], the half-maximal inhibitory concentration (IC50) with U937 cells was 0.002 µM; in assay [1] it was 0.01 µM.

On to `N#Cc1cnc2cnn(C[C@H]3CC[C@H](C(=O)N4OCC[C@H]4c4cnccn4)CC3)c2c1` [compound 137, trans-1-[[4-[(3S)-3-pyrazin-2-ylisoxazolidine-2-carbonyl]cyclohexyl]methyl]pyrazolo[4,3-b]pyridine-6-carbonitrile], for which the IC50 stood at 0.046 µM in the assay on U937 cells and 0.03 µM in assay [1].

For the molecule `O=C([C@H]1CC[C@H](Cn2ncc3cc(F)ccc32)CC1)N1OCC[C@H]1c1cc(F)cc(F)c1` [compound 55, trans-((S)-3-(3,5-difluorophenyl)isoxazolidin-2-yl)(4-((5-fluoro-1H-indazol-1-yl)methyl)cyclohexyl)methanone], the IC50 was 0.003 µM in the assay with U937 cells and 0.021 µM in assay [1].

On to `N#Cc1ccc2c(c1)ncn2C[C@H]1CC[C@H](C(=O)N2OCC[C@H]2c2cncc(F)c2)CC1` [compound 6, trans-1-((4-((S)-3-(5-fluoropyridin-3-yl)isoxazolidine-2-carbonyl)cyclohexyl)methyl)-1H-benzo[d]imidazole-5-carbonitrile], for which the half-maximal inhibitory concentration (IC50) was found to be 0.377 µM with U937 cells and 0.154 µM in assay [1].

Turning to `Cn1nccc1C[C@H]1CC[C@H](C(=O)N2OCC[C@H]2c2cc(F)cc(C#N)c2)CC1` [compound 237, trans-3-fluoro-5-[(3S)-2-[4-[(2-methylpyrazol-3-yl)methyl]cyclohexanecarbonyl]isoxazolidin-3-yl]benzonitrile], the IC50 with U937 cells came out at 0.066 µM; in assay [1], 0.023 µM.

Take `Cc1cnc([C@@H]2CCON2C(=O)[C@H]2CC[C@H](Cc3cc(C)c4ncnn4c3)CC2)cn1` [compound 409, trans-[(3S)-3-(5-methylpyrazin-2-yl)-1,2-oxazolidin-2-yl]-[4-[(8-methyl-[1,2,4]triazolo[1,5-a]pyridin-6-yl)methyl]cyclohexyl]methanone]: the IC50 in the assay with U937 cells amounted to 0.066 µM; in assay [1], 0.046 µM.

As to `O=C1NCc2ccc(C[C@H]3CC[C@H](C(=O)N4OCC[C@H]4c4ccc(F)cc4)CC3)cc21` [compound 154, trans-6-[[4-[(3S)-3-(4-fluorophenyl)isoxazolidine-2-carbonyl]cyclohexyl]methyl]isoindolin-1-one], the concentration for half-maximal inhibition (IC50) is 0.033 µM in the assay with U937 cells and 0.023 µM in assay [1].

`N#Cc1cc2c(cc1F)ncn2C[C@H]1CC[C@H](C(=O)N2OCC[C@H]2c2cc(F)cc(F)c2)CC1` [compound 12, trans-1-((4-((S)-3-(3,5-difluorophenyl)isoxazolidine-2-carbonyl)cyclohexyl)methyl)-5-fluoro-1H-benzo[d]imidazole-6-carbonitrile]: the IC50 in the assay with U937 cells was determined as 0.003 µM; in assay [1] it was 0.033 µM.

In the case of `O=C([C@H]1CC[C@H](Cn2cnc3ccccc32)CC1)N1OCC[C@H]1c1cncc(F)c1` [compound 9, trans-(4-((1H-benzo[d]imidazol-1-yl)methyl)cyclohexyl)((S)-3-(5-fluoropyridin-3-yl)isoxazolidin-2-yl)methanone], the IC50 in the assay with U937 cells amounted to 0.174 µM; in assay [1], 0.113 µM.

Regarding `CNC(=O)c1ccc(F)c(C[C@H]2CC[C@H](C(=O)N3OCC[C@H]3c3cncc(C#N)c3)CC2)c1` [compound 176, trans-3-[[4-[(3S)-3-(5-cyano-3-pyridyl)isoxazolidine-2-carbonyl]cyclohexyl]methyl]-4-fluoro-N-methyl-benzamide], the half-maximal inhibitory concentration (IC50) was 0.015 µM in the assay with U937 cells and 0.013 µM in assay [1].

`N#Cc1cc(F)cc([C@@H]2CCON2C(=O)[C@H]2CC[C@H](Cn3ccc4cnccc43)CC2)c1` [compound 15, trans-3-((S)-2-(4-((1H-pyrrolo[3,2-c]pyridin-1-yl)methyl)cyclohexane-1-carbonyl)isoxazolidin-3-yl)-5-fluorobenzonitrile]: the figures for the 50% inhibitory concentration (IC50) (in the assay with U937 cells; in assay [1]) were 0.011 µM and 0.046 µM, respectively.
